# Counter-ions that a name gives are not always drawn.
# Experiments:
# S1P1 [1] = biological target: T1, S1P1 (Homo sapiens, UniProt P21453); assay: S1P1 Binding Assay (33P-S1P competition, CHO membranes); details: membranes of CHO cells expressing human S1P1, 33P-S1P ligand; read-out: S1P1 B IC50
# T1 construct: expressed in transfected cells; host or cells: CHO cells
# Description: Membranes were prepared from CHO cells expressing human S1P1. Cells were dissociated in buffer containing 20 mM HEPES, pH 7.5, 50 mM NaCl, 2 mM EDTA and Protease Inhibitor cocktail (Roche), and disrupted on ice using the Polytron homogenizer. The homogenate was centrifuged at 20,000 rpm (48,000 g) and the supernatant was discarded. The membrane pellets were resuspended in buffer containing 50 mM HEPES, pH 7.5, 100 mM NaCl, 1 mM MgCl2, 2 mM EDTA and stored in aliquots at −80° C. after protein concentration determination.
# Membranes (2 μg/well) and 0.03 nM final concentration of ^33P-S1P ligand (1 mCi/ml, American Radiolabeled Chemicals) were added to the compound plates. Binding was performed for 60 min at room temperature, terminated by collecting the membranes onto GF/B filter plates, and radioactivity was measured by TOPCOUNT®. The competition data of the test compounds over a range of concentrations was plotted as percentage inhibition of radioligand specific binding. The IC50 is defined as the concentration of competing ligand needed to reduce specific binding by 50%.
# Compounds of the present invention and Comparative Compound A were tested in the S1P1 binding assay described hereinabove and the results rounded to two digits, shown in Table A were obtained. In some instances, the value is an average of multiple experiments where N is the number of experiments conducted that provided satisfactory dose response curves. When more than one batch of an example was tested, the value presented is from the batch which allowed a comparison of GTPγS S1P1 and GTPγS S1P3 in Method A (Data shown in Table B). Data was not averaged across different batches of an example compound.
# S1P3 = S1P3 (Homo sapiens, UniProt Q99500); assay: Method B: Receptor [35S] GTPγS SPA Binding Assay, S1P3; type: biochemical; parameters: expressed in transfected cells; host or cells: CHO cells; details: S1P3 transfected CHO cell membranes
# Description: (§1) Method B: Receptor [^35S] GTPγS SPA Binding Assays
# (§2) Membranes prepared from S1P1 or S1P3 transfected CHO cells (2 μg protein) were incubated in 96-well white plates (CORNING® 3693) with test compounds diluted in DMSO, in 50 μl of reaction mixture containing 7.5 μA WGA-PVT beads (20 mg/ml), and 5 μM GDP, 20 mM HEPES pH 7.4, 100 mM NaCl, 1 mM EDTA, 5 mM MgCl2, 10 μg/ml saponin, 0.1% BSA, and 1 μM leupeptin. The assay was initiated with the addition of […] of 0.2 nM [^35S]-GTPγS (1250 Ci/mmol; NEN) in assay buffer. After 90 min incubation at room temperature, spin the plate at 1000 rpm for 5 min. The bound radionuclides were measured at TOPCOUNT®, expressed as % response relative to S1P (1 μM) activation. Data was analyzed using the four parameter logistic equation in Excel. The four parameters in the equation, Y=A+((B−A)/(1+((EC50/X)^D))), are described as following: A is the Y value (agonist activity) at the bottom plateau; B is the Y value at the top plateau; EC50 is the X value (agonist concentration) when the response is halfway between bottom and top; D is Hill coefficient. Curves were not generated for compounds having Ymax values were below 50%.
# (§3) Compounds of the present invention and Comparative Compound A were tested in the Receptor [^35S] GTPγS Binding Assays (Method A) and Receptor [^35S] In some instances, the value is an average of multiple experiments where N is the number of experiments conducted that provided satisfactory dose response curves. When more than one batch of an example was tested, the value presented is from a batch which allowed a comparison of GTPγS S1P1 and GTPγS S1P3 in which the most number of experiments were performed. Preferably, the same batch was examined in Method A and Method B. Data was not averaged across different batches of an example compound.
# S1P1 [2] = biological target: T1, S1P1; assay: Method B: Receptor [35S] GTPγS SPA Binding Assay, S1P1; type: biochemical; details: for EC50: Method B (SPA), S1P1 transfected CHO cell membranes; for GTPγS S1P3/S1P1 (Method B): ratio of S1P3 EC50 to S1P1 EC50, Method B
# Description: as §1, §2, §3
# S1P1 [3] = biological target: T1, S1P1; assay: Method A: Receptor [35S] GTPγS Binding Assay, S1P1; type: biochemical; details: ratio of S1P3 EC50 to S1P1 EC50, Method A
# Description: Method A: Receptor [35S] GTPγS Binding Assays
# Compounds were loaded in a 384 FALCON® v-bottom plate (0.5 μl/well in a 3-fold dilution). Membranes prepared from S1P1/CHO cells or EDG3-Gal5-bla HEK293T cells were added to the compound plate (40 μl/well, final protein 3 μg/well) with MULTIDROP®. [^35S]GTP (1250 Ci/mmol, Perkin Elmer) was diluted in assay buffer: 20 mM HEPES, pH7.5, 10 mM MgCl2, 150 mM NaCl, 1 mM EGTA, 1 mM DTT, 10 μM GDP, 0.1% fatty acid free BSA, and 10 μg/ml Saponin to 0.4 nM. 40 μl of the [^35S] GTP solution was added to the compound plate with a final concentration of 0.2 nM. The reaction was kept at room temperature for 45 min. At the end of incubation, all the mixtures in the compound plate were transferred to a 384 well FB filter plates via GPCR robot system. The filter plate was washed with water 4 times by using the modified manifold Embla plate washer and dried at 60° C. for 45 min. 30 μA of MicroScint 20 scintillation fluid was added to each well for counting at Packard TOPCOUNT®. EC50 is defined as the agonist concentration that corresponds to 50% of the Ymax (maximal response) obtained for each individual compound tested.
# as §3
# Chain of S1P3 (Q99500 whole entry): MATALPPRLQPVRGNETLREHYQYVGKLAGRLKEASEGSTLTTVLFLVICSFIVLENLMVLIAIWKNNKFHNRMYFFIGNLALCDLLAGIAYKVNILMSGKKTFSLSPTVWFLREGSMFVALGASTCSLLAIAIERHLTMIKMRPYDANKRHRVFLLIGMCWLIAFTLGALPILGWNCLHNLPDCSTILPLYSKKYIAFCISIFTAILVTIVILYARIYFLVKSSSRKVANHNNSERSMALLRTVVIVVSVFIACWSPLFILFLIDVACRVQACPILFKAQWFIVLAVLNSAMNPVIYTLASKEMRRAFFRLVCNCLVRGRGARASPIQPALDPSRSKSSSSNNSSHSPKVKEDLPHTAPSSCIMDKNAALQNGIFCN
# T1 sequence (P21453 whole entry): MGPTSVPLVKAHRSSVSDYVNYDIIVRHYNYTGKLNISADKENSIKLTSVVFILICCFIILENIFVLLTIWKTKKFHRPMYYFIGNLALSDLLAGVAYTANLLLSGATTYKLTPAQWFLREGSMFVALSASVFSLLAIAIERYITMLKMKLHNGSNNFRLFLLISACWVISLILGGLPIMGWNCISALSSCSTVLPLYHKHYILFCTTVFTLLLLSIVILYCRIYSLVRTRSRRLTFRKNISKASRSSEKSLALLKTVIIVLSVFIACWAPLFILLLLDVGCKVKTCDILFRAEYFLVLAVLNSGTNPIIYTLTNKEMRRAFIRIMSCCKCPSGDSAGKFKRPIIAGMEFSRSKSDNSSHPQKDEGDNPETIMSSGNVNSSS
SMILES,IC50 (S1P1 [1]),EC50 (S1P3),EC50 (S1P1 [2]),GTPγS S1P3/S1P1 (Method B) (S1P1 [2]),GTPγS S1P3/S1P1 (Method A) (S1P1 [3])
"O=C(O)C1CN(Cc2ccc(-c3noc(-c4cnn(-c5ccccn5)c4C4CCCC4)n3)cc2)C1 [Example 7, 1-(4-(5-(5-cyclopentyl-1-(pyridin-2-yl)-1H-pyrazol-4-yl)-1,2,4-oxadiazol-3-yl)benzyl)azetidine-3-carboxylic acid]",0.19 nM,220 nM,0.087 nM,"2,500",–
"CC(C)CNc1c(-c2nc(-c3ccc(CN4CC(C(=O)O)C4)cc3)no2)cnn1-c1ccccc1 [Example 12, 1-(4-(5-(5-(Isobutylamino)-1-phenyl-1H-pyrazol-4-yl)-1,2,4-oxadiazol-3-yl)benzyl)azetidine-3-carboxylic acid]",1.7 nM,9800 nM,0.28 nM,"35,000",–
"CCCCNc1c(-c2nc(-c3ccc(CN4CC(C(=O)O)C4)cc3)no2)cnn1-c1ccccc1 [Example 13, 1-(4-(5-(5-(n-butylamino)-1-phenyl-1H-pyrazol-4-yl)-1,2,4-oxadiazol-3-yl)benzyl)azetidine-3-carboxylic acid]",3.1 nM,51 nM,0.17 nM,300,–
"O=C(O)C1CN(Cc2ccc(-c3noc(-c4cc(-c5ccccc5)c(C(F)(F)F)s4)n3)cc2)C1 [Comp. A, 1-(4-(5-(4-phenyl-5-(trifluoromethyl)thiophen-2-yl)-1,2,4-oxadiazol-3-yl)benzyl)-azetidine-3-carboxylic acid, reference compound]",–,–,–,78,1.2
"O=C(O)C1CN(Cc2ccc(-c3noc(-c4cnn(-c5ccccc5)c4Cl)n3)cc2)C1 [Example 11, 1-(4-(5-(5-chloro-1-phenyl-1H-pyrazol-4-yl)-1,2,4-oxadiazol-3-yl)benzyl)azetidine-3-carboxylic acid]",–,2000 nM,1.9 nM,"1,100",–
"CCNc1c(-c2nc(-c3ccc(CN4CC(C(=O)O)C4)cc3)no2)cnn1-c1ccccc1 [Example 4, 1-(4-(5-(5-(ethylamino)-1-phenyl-1H-pyrazol-4-yl)-1,2,4-oxadiazol-3-yl)benzyl)azetidine-3-carboxylic acid]",1.1 nM,400 nM,0.19 nM,"2,100",–
"Cc1c(-c2nc(-c3ccc(CN4CC(C(=O)O)C4)cc3)no2)cnn1C1CCCCC1 [Example 9, 1-(4-(5-(1-cyclohexyl-5-methyl-1H-pyrazol-4-yl)-1,2,4-oxadiazol-3-yl)benzyl)azetidine-3-carboxylic acid]",–,710 nM,1.3 nM,550,–
"CC(C)Nc1c(-c2nc(-c3ccc(CN4CC(C(=O)O)C4)cc3)no2)cnn1-c1ccccc1 [Example 3, 1-(4-(5-(5-(isopropylamino)-1-phenyl-1H-pyrazol-4-yl)-1,2,4-oxadiazol-3-yl)benzyl)azetidine-3-carboxylic acid]",0.48 nM,1700 nM,0.15 nM,"11,000",–
"O=C(O)C1CN(Cc2ccc(-c3noc(-c4cnn(-c5ccccc5)c4Br)n3)cc2)C1 [Example 14, 1-(4-(5-(5-Bromo-1-phenyl-1H-pyrazol-4-yl)-1,2,4-oxadiazol-3-yl)benzyl)azetidine-3-carboxylic acid, 2,2,2-trifluoroacetic acid salt]",0.98 nM,7100 nM,2.1 nM,"3,400",–
"O=C(O)C1CN(Cc2ccc(-c3noc(-c4cnn(-c5ccccn5)c4-c4ccccc4)n3)cc2)C1 [Example 10, 1-(4-(5-(5-phenyl-1-(pyridin-2-yl)-1H-pyrazol-4-yl)-1,2,4-oxadiazol-3-yl)benzyl)azetidine-3-carboxylic acid]",1.1 nM,1100 nM,0.42 nM,"2,600",–

# Reference: US8389509B2, “Substituted pyrazole compounds” (Bristol-Myers Squibb Company, priority 2009, dated 2013)
